Results from US20200246298A1, “Composition for Preventing or Treating Asthma Comprising Fatty Acid as Active Ingredient” (Dongshin University Industry-Academy Cooperation, priority 2019, published 2020).

Columns and labels:
[1] = system: eosinophils, mucus and epithelial hyperplasia; experiment: H&E staining of lung tissue, OVA-induced asthma; assay type: in vivo, BALB/c mice; conditions: 5 days, vs OVA-sensitized group
Protocol: In test groups, the animals determined to be healthy during the acclimation period were ranked by measuring the weight, and were randomly grouped so that the average weight of each group was uniform. The animals were divided into a total of 9 groups: a control group; a control group with OVA-induced asthma; a positive control group; groups administered with each of 50 mg/kg, 125 mg/kg and 250 mg/kg of oleic acid; and groups administered with each of 5 mg/kg, 25 mg/kg and 50 mg/kg of palmitic acid. The animals were sensitized via intraperitoneal injection of OVA once a week for 2 weeks after the acclimation period. During 5 days of week 3, dexamethasone (DEX) and the test substances oleic acid and palmitic acid were orally administered in the morning and 5% OVA solution was inhaled in the afternoon. The test substance was orally administered in an amount of 28 μL per weight (g) of the experimental animal, and OVA for sensitization was administered in a constant amount regardless of the weight. After 5 days of administration, autopsy was performed the next day. Storage of tissue: ½ of the autopsy tissue was frozen quickly in liquid nitrogen, stored in an ultralow-temperature freezer or liquid nitrogen container (about −75 ° C.), and used for PCR/Western blotting, and the remaining ½ was stored in 10% formalin solution and used for histopathology and immunohistochemistry (IHC). […]

[2] = system: mucus; experiment: PAS staining of lung tissue, OVA-induced asthma; assay type: in vivo, BALB/c mice; conditions: 5 days, vs OVA-sensitized group
Protocol: In test groups, the animals determined to be healthy during the acclimation period were ranked by measuring the weight, and were randomly grouped so that the average weight of each group was uniform. The animals were divided into a total of 9 groups: a control group; a control group with OVA-induced asthma; a positive control group; groups administered with each of 50 mg/kg, 125 mg/kg and 250 mg/kg of oleic acid; and groups administered with each of 5 mg/kg, 25 mg/kg and 50 mg/kg of palmitic acid. The animals were sensitized via intraperitoneal injection of OVA once a week for 2 weeks after the acclimation period. During 5 days of week 3, dexamethasone (DEX) and the test substances oleic acid and palmitic acid were orally administered in the morning and 5% OVA solution was inhaled in the afternoon. The test substance was orally administered in an amount of 28 μL per weight (g) of the experimental animal, and OVA for sensitization was administered in a constant amount regardless of the weight. After 5 days of administration, autopsy was performed the next day.
Storage of tissue: ½ of the autopsy tissue was frozen quickly in liquid nitrogen, stored in an ultralow-temperature freezer or liquid nitrogen container (about −75 ° C.), and used for PCR/Western blotting, and the remaining ½ was stored in 10% formalin solution and used for histopathology and immunohistochemistry (IHC). […]

| SMILES | eosinophils, mucus and epithelial hyperplasia (H&E staining) ([1]; oleic acid 50, 125, 250 mg/kg oral, FIG. 15) | mucus (PAS staining) ([2]; oleic acid 50, 125, 250 mg/kg oral, FIG. 17) | eosinophils, mucus and epithelial hyperplasia (H&E staining) ([1]; palmitic acid 5, 25, 50 mg/kg oral, FIG. 16) | mucus (PAS staining) ([2]; palmitic acid 5, 25, 50 mg/kg oral, FIG. 18) |
| --- | --- | --- | --- | --- |
| CCCCCCCC/C=C\CCCCCCCC(=O)O [oleic acid] | dose-dependently decreased | dose-dependently decreased | – | – |
| CCCCCCCCCCCCCCCC(=O)O [palmitic acid] | – | – | dose-dependently decreased | dose-dependently decreased |
